From ChEMBL document CHEMBL4422660, “Synthesis of NSC 106084 and NSC 14778 and evaluation of their DNMT inhibitory activity” (Bioorg Med Chem Lett, 2019)
The source made the active and inactive calls. No cut-off for these calls is given here.

System: DNA
Assay: Induction of DNA intercalation using nucleosomal DNA (unknown origin) up to 1 mM by CYBR Green dye-based fluorescence assay
Type: nucleic-acid assay

**Q.** `O=C(O)c1cc(Cc2ccc(O)c(C(=O)O)c2)ccc1O` was tested. Which Activity did it give?
**A.** The Activity was “inactive”.
